Test results published in ChEMBL document CHEMBL3861999, “Investigation of C-5 alkynyl (alkynyloxy or hydroxymethyl) and/or N-3 propynyl substituted pyrimidine nucleoside analogs as a new class of antimicrobial agents” (Bioorg Med Chem, 2016).
Values after ≈ are worked out from the molar mass of the structure shown.

How the values were obtained:
[1] = test system: Mycobacterium tuberculosis; experiment: Growth inhibition of Mycobacterium tuberculosis H37Ra at 200 ug/ml after 6 days by microplate alamar blue assay; assay type: functional; settings: 144 h, read-out: GI
[2] = test system: Staphylococcus aureus; experiment: Growth inhibition of Staphylococcus aureus ATCC 25923 assessed as fractional inhibitory concentration index at 100 ug/ml after 6 days in presence of 0.1 ug/ml of gentamicin by microplate alamar blue assay; assay type: functional
[3] = test system: Pseudomonas aeruginosa; experiment: Antibacterial activity against Pseudomonas aeruginosa ATCC 13048 after 16 to 20 hrs by broth microdilution method; assay type: functional
[4] = test system: Enterococcus faecalis; experiment: Growth inhibition of Enterococcus faecalis ATCC 29212 at 100 ug/ml after 6 days in presence of 4.5 ug/ml of gentamicin by microplate alamar blue assay; assay type: functional
[5] = test system: Salmonella typhimurium; experiment: Antibacterial activity against clinical isolates of Salmonella typhimurium after 16 to 20 hrs by broth microdilution method; assay type: functional, Salmonella enterica subsp. enterica serovar Typhimurium; settings: for MIC: Salmonella enterica, read-out: MIC100
[6] = test system: Escherichia coli; experiment: Antibacterial activity against Escherichia coli ATCC 25922 after 16 to 20 hrs by broth microdilution method; assay type: functional
[7] = test system: Staphylococcus aureus; experiment: Antibacterial activity against Staphylococcus aureus ATCC 25923 after 16 to 20 hrs by broth microdilution method; assay type: functional; settings: for MIC: read-out: MIC100
[8] = test system: Enterococcus faecalis; experiment: Antibacterial activity against Enterococcus faecalis ATCC 29212 after 16 to 20 hrs by broth microdilution method; assay type: functional; settings: for MIC: read-out: MIC100
[9] = Cytotoxicity against African green monkey Vero cells assessed as decrease in cell viability after 3 days by XTT assay; assay type: toxicity, cell-based; settings: chlorocebus sabaeus
[10] = test system: Enterococcus faecalis; experiment: Growth inhibition of Enterococcus faecalis ATCC 29212 assessed as fractional inhibitory concentration index at 100 ug/ml after 6 days in presence of 4.5 ug/ml of gentamicin by microplate alamar blue assay; assay type: functional
[11] = test system: Mycobacterium avium; experiment: Growth inhibition of Mycobacterium avium ATCC 25291 at 200 ug/ml after 6 days by microplate alamar blue assay; assay type: functional, Mycobacterium avium subsp. avium ATCC 25291; settings: ATCC 25291, 144 h, read-out: GI
[12] = test system: Staphylococcus aureus; experiment: Growth inhibition of Staphylococcus aureus ATCC 25923 at 100 ug/ml after 6 days in presence of 0.1 ug/ml of gentamicin by microplate alamar blue assay; assay type: functional
[13] = test system: Mycobacterium tuberculosis; experiment: Growth inhibition of Mycobacterium tuberculosis H37Ra at 0.002 ug/ml after 6 days by microplate alamar blue assay; assay type: functional; settings: 144 h, read-out: GI
[14] = test system: Mycobacterium avium; experiment: Growth inhibition of Mycobacterium avium ATCC 25291 at 2 ug/ml after 6 days by microplate alamar blue assay; assay type: functional, Mycobacterium avium subsp. avium ATCC 25291; settings: ATCC 25291, 144 h, read-out: GI
[15] = test system: Mycobacterium tuberculosis; experiment: Growth inhibition of Mycobacterium tuberculosis H37Ra at 0.5 ug/ml after 6 days by microplate alamar blue assay; assay type: functional; settings: 144 h, read-out: GI
[16] = test system: Mycobacterium tuberculosis; experiment: Growth inhibition of Mycobacterium tuberculosis H37Ra at 0.006 ug/ml after 6 days by microplate alamar blue assay; assay type: functional; settings: 144 h, read-out: GI
[17] = test system: Mycobacterium tuberculosis; experiment: Growth inhibition of Mycobacterium tuberculosis H37Ra at 1 ug/ml after 6 days by microplate alamar blue assay; assay type: functional; settings: 144 h, read-out: GI
[18] = test system: Mycobacterium tuberculosis; experiment: Inhibition of Mycobacterium tuberculosis H37Ra infected in human THP1 cells assessed as reduction in surviving bacteria at 1 ug/ml after 7 days by serial dilution method; assay type: functional; settings: THP-1, 168 h
[19] = test system: Mycobacterium tuberculosis; experiment: Growth inhibition of Mycobacterium tuberculosis H37Ra at 0.012 ug/ml after 6 days by microplate alamar blue assay; assay type: functional; settings: 144 h, read-out: GI
[20] = test system: Mycobacterium tuberculosis; experiment: Growth inhibition of Mycobacterium tuberculosis H37Ra at 0.2 ug/ml after 6 days by microplate alamar blue assay; assay type: functional; settings: 144 h, read-out: GI
[21] = test system: Mycobacterium tuberculosis; experiment: Growth inhibition of Mycobacterium tuberculosis H37Ra at 100 ug/ml after 6 days by microplate alamar blue assay; assay type: functional; settings: 144 h, read-out: GI
[22] = test system: Mycobacterium tuberculosis; experiment: Growth inhibition of Mycobacterium tuberculosis H37Ra at 50 ug/ml after 6 days by microplate alamar blue assay; assay type: functional; settings: 144 h, read-out: GI
[23] = test system: Mycobacterium tuberculosis; experiment: Inhibition of Mycobacterium tuberculosis H37Ra infected in human THP1 cells assessed as reduction in surviving bacteria at 200 ug/ml after 7 days by serial dilution method; assay type: functional; settings: THP-1, 168 h
[24] = test system: Mycobacterium tuberculosis; experiment: Growth inhibition of Mycobacterium tuberculosis H37Ra at 100 ug/ml after 6 days in presence of 0.2 ug/ml of isoniazid by microplate alamar blue assay; assay type: functional
[25] = test system: Mycobacterium tuberculosis; experiment: Growth inhibition of Mycobacterium tuberculosis H37Ra assessed as fractional inhibitory concentration index at 50 ug/ml after 6 days in presence of 0.012 ug/ml of isoniazid and 0.002 ug/ml of rifampicin by microplate alamar blue assay; assay type: functional
[26] = test system: Mycobacterium tuberculosis; experiment: Growth inhibition of Mycobacterium tuberculosis H37Ra assessed as fractional inhibitory concentration index at 100 ug/ml after 6 days in presence of 0.2 ug/ml of isoniazid by microplate alamar blue assay; assay type: functional
[27] = test system: Mycobacterium tuberculosis; experiment: Growth inhibition of Mycobacterium tuberculosis H37Ra at 75 ug/ml after 6 days in presence of 0.2 ug/ml of isoniazid by microplate alamar blue assay; assay type: functional
[28] = test system: Mycobacterium tuberculosis; experiment: Growth inhibition of Mycobacterium tuberculosis H37Ra at 50 ug/ml after 6 days in presence of 0.012 ug/ml of isoniazid and 0.002 ug/ml of rifampicin by microplate alamar blue assay; assay type: functional
[29] = test system: Mycobacterium tuberculosis; experiment: Growth inhibition of Mycobacterium tuberculosis H37Ra assessed as fractional inhibitory concentration index at 75 ug/ml after 6 days in presence of 0.2 ug/ml of isoniazid by microplate alamar blue assay; assay type: functional
[30] = test system: Mycobacterium tuberculosis; experiment: Growth inhibition of Mycobacterium tuberculosis H37Ra at 75 ug/ml after 6 days by microplate alamar blue assay; assay type: functional; settings: 144 h, read-out: GI
[31] = test system: Mycobacterium tuberculosis; experiment: Growth inhibition of Mycobacterium tuberculosis H37Ra at 50 ug/ml after 6 days in presence of 0.006 ug/ml of isoniazid and 0.002 ug/ml of rifampicin by microplate alamar blue assay; assay type: functional
[32] = test system: Pseudomonas aeruginosa; experiment: Growth inhibition of Pseudomonas aeruginosa ATCC 13048 at 10 to 200 ug/ml after 16 to 20 hrs by broth microdilution method; assay type: functional
[33] = test system: Escherichia coli; experiment: Growth inhibition of Escherichia coli ATCC 25922 at 10 to 200 ug/ml after 16 to 20 hrs by broth microdilution method; assay type: functional
[34] = test system: Mycobacterium tuberculosis; experiment: Growth inhibition of Mycobacterium tuberculosis H37Ra assessed as fractional inhibitory concentration index at 50 ug/ml after 6 days in presence of 0.006 ug/ml of isoniazid and 0.002 ug/ml of rifampicin by microplate alamar blue assay; assay type: functional

In the case of C#CCOc1cn([C@@H]2O[C@H](CO)[C@@H](O)[C@H]2F)c(=O)n(CC#C)c1=O, the inhibition of growth at 200 µg/mL [1] is reported as 35%, the “fractional inhibitory concentration index (FICI)” value [2] is reported as 0.7 and the MIC ([3]; read-out: MIC100) is reported as over 200 µg/mL. The “growth inhibition (GI)” value [4] was 100%, the MIC [5] was over 200 µg/mL and the MIC ([6]; read-out: MIC100) was over 200 µg/mL. For the same compound, the MIC [7] was 200 µg/mL (≈ 591 µM), the MIC [8] was 200 µg/mL (≈ 591 µM) and the CC50 at 72 h [9] was over 300 µg/mL. The “fractional inhibitory concentration index (FICI)” value [10] was 0.86, the inhibition of growth at 200 µg/mL [11] was 0% and the “growth inhibition (GI)” value [12] was 100%.
Compound GENTAMICIN has an MIC100 [3] of 1 µg/mL, an MIC100 ([5]; Salmonella enterica subsp. enterica serovar Typhimurium) of 1 µg/mL and an MIC100 [6] of 1 µg/mL. The MIC100 [7] was 0.5 µg/mL and the MIC100 [8] was 12.5 µg/mL.
Compound CO[C@H]1/C=C/O[C@@]2(C)Oc3c(C)c(O)c4c(O)c(c(/C=N/N5CCN(C)CC5)c(O)c4c3C2=O)NC(=O)/C(C)=C\C=C\[C@H](C)[C@H](O)[C@@H](C)[C@@H](O)[C@@H](C)[C@H](OC(C)=O)[C@@H]1C [RIFAMPIN] has an inhibition of growth at 0.002 µg/mL [13] of 46.2%, an inhibition of growth at 2 µg/mL [14] of 90% and an inhibition of growth at 0.5 µg/mL [15] of 100%.
In the case of CN[C@H](CC(C)C)C(=O)N[C@H]1C(=O)N[C@@H](CC(N)=O)C(=O)N[C@H]2C(=O)N[C@H]3C(=O)N[C@H](C(=O)N[C@H](C(=O)O)c4cc(O)cc(O)c4-c4cc3ccc4O)[C@H](O)c3ccc(c(Cl)c3)Oc3cc2cc(c3O[C@@H]2O[C@H](CO)[C@@H](O)[C@H](O)[C@H]2O[C@H]2C[C@](C)(N)[C@H](O)[C@H](C)O2)Oc2ccc(cc2Cl)[C@H]1O [VANCOMYCIN], the MIC [7] is reported as 1.5 µg/mL (≈ 1.04 µM) and the MIC [8] is reported as 4.5 µg/mL (≈ 3.11 µM).
In the case of CC[C@H]1OC(=O)[C@H](C)[C@@H](O[C@H]2C[C@@](C)(OC)[C@@H](O)[C@H](C)O2)[C@H](C)[C@@H](O[C@@H]2O[C@H](C)C[C@H](N(C)C)[C@H]2O)[C@](C)(OC)C[C@@H](C)C(=O)[C@H](C)[C@@H](O)[C@]1(C)O [CLARITHROMYCIN], the inhibition of growth at 2 µg/mL [14] is reported as 100%.
Work on NNC(=O)c1ccncc1 [ISONIAZID] yielded an inhibition of growth at 0.006 µg/mL [16] of 1.47%, an inhibition of growth at 1 µg/mL [17] of 100% and an inhibition at 1 µg/mL [18] of over 90%. For the same compound, the inhibition of growth at 0.012 µg/mL [19] was 7.22% and the inhibition of growth at 0.2 µg/mL [20] was 48.8%.
For C#CCOc1cn([C@@H]2O[C@H](CO)[C@@H](O)[C@H]2F)c(=O)[nH]c1=O, the inhibition of growth at 200 µg/mL [1] was 97%, the inhibition of growth at 100 µg/mL [21] was 3.15% and the inhibition of growth at 50 µg/mL [22] was 2.51%. The inhibition at 200 µg/mL [23] was 50%, the MIC [5] was over 200 µg/mL and the “growth inhibition (GI)” value [24] was 99.15%. For the same compound, the “fractional inhibitory concentration index (FICI)” value [25] was 0.09, the “fractional inhibitory concentration index (FICI)” value [26] was 0.03 and the “growth inhibition (GI)” value [27] was 81.16%. The MIC [7] was over 200 µg/mL, the MIC [8] was over 200 µg/mL and the “growth inhibition (GI)” value [28] was 97.81%. For the same compound, the CC50 at 72 h [9] was over 300 µg/mL, the “fractional inhibitory concentration index (FICI)” value [29] was 0.56 and the inhibition of growth at 75 µg/mL [30] was 1.15%. The inhibition of growth at 200 µg/mL [11] was 0%, the “growth inhibition (GI)” value [31] was 93.36% and the “growth inhibition (GI)” value [32] was 0%. For the same compound, the “growth inhibition (GI)” value [33] was 0% and the “fractional inhibitory concentration index (FICI)” value [34] was 0.21.
